Laboratory results as given in patent US12065436B2, “Cardiac sarcomere inhibitors” (Cytokinetics, Inc., priority 2018, dated 2024).

Molecular target: bovine cardiac myofibrils (full-length cardiac myosin ATPase in the native sarcomere) (Bos taurus (Bovine), UniProt Q9BE39)
Test: Skinned bovine cardiac myofibril ATPase assay (PK/LDH-coupled)
Format: biochemical
Settings: Ca2+ activating to 75% of maximal rate; for CDMF75 IC15: concentration giving 15% inhibition; for IC50: read-out: CDMF75 IC50
Summary of the method: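 Inhibition of steady-state ATPase read at 340 nm through a PK/LDH-coupled NADH system (0.5 mM NADH, 1.5 mM PEP). Detergent-skinned bovine cardiac myofibrils, 1 mg/mL, were tested at pH 6.8 in PIPES/MgCl2 with 50 μM ATP and calcium adjusted to give pCa50 or pCa75 activation.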

Sequence of bovine cardiac myofibrils (full-length cardiac myosin ATPase in the native sarcomere) (Q9BE39 whole entry): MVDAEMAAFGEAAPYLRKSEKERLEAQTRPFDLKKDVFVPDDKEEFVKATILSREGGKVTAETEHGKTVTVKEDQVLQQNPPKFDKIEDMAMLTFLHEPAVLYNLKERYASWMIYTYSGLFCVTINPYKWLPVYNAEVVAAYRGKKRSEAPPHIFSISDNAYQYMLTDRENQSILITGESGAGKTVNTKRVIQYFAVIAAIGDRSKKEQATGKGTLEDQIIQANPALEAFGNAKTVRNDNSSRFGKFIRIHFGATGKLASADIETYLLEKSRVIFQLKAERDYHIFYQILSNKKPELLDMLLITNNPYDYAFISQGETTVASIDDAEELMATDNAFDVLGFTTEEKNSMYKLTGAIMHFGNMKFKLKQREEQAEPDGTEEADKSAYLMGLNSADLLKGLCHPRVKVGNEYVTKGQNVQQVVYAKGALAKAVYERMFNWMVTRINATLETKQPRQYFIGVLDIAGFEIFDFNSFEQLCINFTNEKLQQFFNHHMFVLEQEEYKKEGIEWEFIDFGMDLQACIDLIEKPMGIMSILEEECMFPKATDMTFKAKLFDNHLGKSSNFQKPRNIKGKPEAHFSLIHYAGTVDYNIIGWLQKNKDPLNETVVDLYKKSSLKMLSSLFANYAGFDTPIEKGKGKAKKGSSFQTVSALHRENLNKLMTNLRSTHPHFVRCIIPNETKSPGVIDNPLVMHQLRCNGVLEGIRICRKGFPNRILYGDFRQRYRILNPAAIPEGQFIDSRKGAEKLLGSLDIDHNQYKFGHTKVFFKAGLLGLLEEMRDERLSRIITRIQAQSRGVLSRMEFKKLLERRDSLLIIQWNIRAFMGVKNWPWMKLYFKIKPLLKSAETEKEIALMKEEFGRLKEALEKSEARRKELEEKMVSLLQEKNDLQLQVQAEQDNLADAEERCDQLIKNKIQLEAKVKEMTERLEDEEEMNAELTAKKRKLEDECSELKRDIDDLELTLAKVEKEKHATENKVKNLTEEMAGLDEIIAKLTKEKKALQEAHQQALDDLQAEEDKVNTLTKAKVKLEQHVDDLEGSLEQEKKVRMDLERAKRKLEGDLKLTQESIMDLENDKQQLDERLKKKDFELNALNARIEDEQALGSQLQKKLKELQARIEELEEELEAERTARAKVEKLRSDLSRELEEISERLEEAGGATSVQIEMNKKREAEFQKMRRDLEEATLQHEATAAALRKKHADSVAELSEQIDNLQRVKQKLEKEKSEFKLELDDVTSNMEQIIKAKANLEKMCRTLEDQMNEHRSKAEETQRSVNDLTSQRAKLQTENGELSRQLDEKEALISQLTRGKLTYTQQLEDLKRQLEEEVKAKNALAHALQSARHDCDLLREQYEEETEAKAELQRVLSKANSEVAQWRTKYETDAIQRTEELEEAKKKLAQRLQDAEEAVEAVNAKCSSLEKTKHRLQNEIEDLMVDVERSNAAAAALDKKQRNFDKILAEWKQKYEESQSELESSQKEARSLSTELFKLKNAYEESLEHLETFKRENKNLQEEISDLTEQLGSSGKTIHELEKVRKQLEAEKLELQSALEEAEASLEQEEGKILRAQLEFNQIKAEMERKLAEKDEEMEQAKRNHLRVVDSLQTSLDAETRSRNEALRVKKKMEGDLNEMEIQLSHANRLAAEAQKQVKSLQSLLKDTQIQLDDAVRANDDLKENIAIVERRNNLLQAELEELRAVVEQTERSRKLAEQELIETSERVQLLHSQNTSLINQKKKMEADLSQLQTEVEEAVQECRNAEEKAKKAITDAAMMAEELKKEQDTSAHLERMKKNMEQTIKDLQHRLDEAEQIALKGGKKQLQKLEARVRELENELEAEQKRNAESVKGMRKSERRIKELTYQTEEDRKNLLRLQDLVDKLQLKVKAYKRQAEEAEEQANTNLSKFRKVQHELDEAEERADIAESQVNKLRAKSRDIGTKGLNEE
Sequence of bovine cardiac myofibrils (full-length cardiac myosin ATPase in the native sarcomere) (P85100 whole entry partner): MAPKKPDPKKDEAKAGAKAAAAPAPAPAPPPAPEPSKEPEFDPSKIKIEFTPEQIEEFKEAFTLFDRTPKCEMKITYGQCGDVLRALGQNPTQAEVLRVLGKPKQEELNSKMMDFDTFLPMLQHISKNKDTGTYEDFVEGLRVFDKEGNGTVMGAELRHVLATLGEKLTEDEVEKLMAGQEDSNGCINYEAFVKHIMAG
Sequence of bovine cardiac myofibrils (full-length cardiac myosin ATPase in the native sarcomere) (Q3SZE5 whole entry partner): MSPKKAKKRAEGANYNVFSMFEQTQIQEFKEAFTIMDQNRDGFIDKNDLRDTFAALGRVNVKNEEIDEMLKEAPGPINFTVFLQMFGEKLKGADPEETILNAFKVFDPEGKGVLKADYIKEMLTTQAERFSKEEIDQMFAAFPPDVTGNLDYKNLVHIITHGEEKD

Row | SMILES | CDMF75 IC15 | IC50
1 | Cc1nc(-c2ccc3c(c2)OC[C@H]3NC(=O)c2conc2C)no1 [Compound 347, (S)-3-methyl-N-(6-(5-methyl-1,2,4-oxadiazol-3-yl)-2,3-dihydrobenzofuran-3-yl)isoxazole-4-carboxamide] | 0.5 µM | 1.6 µM
2 | COC(=O)N[C@@H]1COc2cc(-c3noc(C4CC4)n3)ccc21 [Compound 348, methyl (S)-(6-(5-cyclopropyl-1,2,4-oxadiazol-3-yl)-2,3-dihydrobenzofuran-3-yl)carbamate] | 0.5 µM | 1.8 µM
3 | CCc1nc(-c2ccc3c(c2)OC[C@H]3NC(=O)OC)no1 [Compound 349, methyl (S)-(6-(5-ethyl-1,2,4-oxadiazol-3-yl)-2,3-dihydrobenzofuran-3-yl)carbamate] | 0.3 µM | 0.9 µM
4 | COC(=O)N[C@@H]1CCc2cc(-c3nc(C4CC4)no3)ccc21 [Compound 350, methyl (R)-(5-(3-cyclopropyl-1,2,4-oxadiazol-5-yl)-2,3-dihydro-1H-inden-1-yl)carbamate] | 0.5 µM | 2.1 µM
5 | CCc1nc(-c2ccc3c(c2)CC[C@H]3NC(=O)[C@@H]2CCNC(=O)C2)no1 [Compound 351, (R)-N-((R)-5-(5-ethyl-1,2,4-oxadiazol-3-yl)-2,3-dihydro-1H-inden-1-yl)-2-oxopiperidine-4-carboxamide] | 18.8 µM | > 39.2 µM
6 | CCc1nc(-c2ccc3c(c2)CC[C@H]3NC(=O)C2CCC(=O)N(C)C2)no1 (stereo partly drawn) [Compound 352, N-((R)-5-(5-ethyl-1,2,4-oxadiazol-3-yl)-2,3-dihydro-1H-inden-1-yl)-1-methyl-6-oxopiperidine-3-carboxamide] | 13.0 µM | > 39.2 µM
7 | CCc1nc(-c2ccc3c(c2)CC[C@H]3NC(=O)C2CCCCN2C)no1 (stereo partly drawn) [Compound 353, N-((R)-5-(5-ethyl-1,2,4-oxadiazol-3-yl)-2,3-dihydro-1H-inden-1-yl)-1-methylpiperidine-2-carboxamide] | 29.0 µM | > 39.2 µM
8 | CCc1nc(-c2ccc3c(c2)CC[C@H]3NC(=O)C2CCCC(=O)N2)no1 (stereo partly drawn) [Compound 354, N-((R)-5-(5-ethyl-1,2,4-oxadiazol-3-yl)-2,3-dihydro-1H-inden-1-yl)-6-oxopiperidine-2-carboxamide] | 34.1 µM | > 39.2 µM
9 | CCc1nc(-c2ccc3c(c2)CC[C@H]3NC(=O)[C@H]2CCNC(=O)C2)no1 [Compound 355, (S)-N-((R)-5-(5-ethyl-1,2,4-oxadiazol-3-yl)-2,3-dihydro-1H-inden-1-yl)-2-oxopiperidine-4-carboxamide] | 2.9 µM | 10.9 µM
10 | CCc1nc(-c2ccc3c(c2)CC[C@H]3NC(=O)[C@H]2COCCN2)no1 [Compound 356, (R)-N-((R)-5-(5-ethyl-1,2,4-oxadiazol-3-yl)-2,3-dihydro-1H-inden-1-yl)morpholine-3-carboxamide] | 13.4 µM | > 39.2 µM
11 | CCc1nc(-c2ccc3c(c2)CC[C@H]3NC(=O)OC2COC2)no1 [Compound 357, oxetan-3-yl (R)-(5-(5-ethyl-1,2,4-oxadiazol-3-yl)-2,3-dihydro-1H-inden-1-yl)carbamate] | 0.5 µM | 1.7 µM
12 | CCc1nc(-c2ccc3c(c2)CC[C@H]3NC(=O)OCC2COC2)no1 [Compound 358, oxetan-3-ylmethyl (R)-(5-(5-ethyl-1,2,4-oxadiazol-3-yl)-2,3-dihydro-1H-inden-1-yl)carbamate] | 0.6 µM | 2.2 µM
13 | CCc1nc(-c2ccc3c(c2)CC[C@H]3NC(=O)OCC(C)(C)OC)no1 [Compound 359, 2-methoxy-2-methylpropyl (R)-(5-(5-ethyl-1,2,4-oxadiazol-3-yl)-2,3-dihydro-1H-inden-1-yl)carbamate] | 2.3 µM | 9.5 µM
14 | CCc1nc(-c2ccc3c(c2)CC[C@H]3NC(=O)OCC2CN(C(C)=O)C2)no1 [Compound 360, (1-acetylazetidin-3-yl)methyl (R)-(5-(5-ethyl-1,2,4-oxadiazol-3-yl)-2,3-dihydro-1H-inden-1-yl)carbamate] | 21.6 µM | > 39.2 µM
15 | CCc1nc(-c2ccc3c(c2)CC[C@H]3NC(=O)OCC2CN(C(=O)OC)C2)no1 [Compound 361, methyl (R)-3-((((5-(5-ethyl-1,2,4-oxadiazol-3-yl)-2,3-dihydro-1H-inden-1-yl)carbamoyl)oxy)methyl)azetidine-1-carboxylate] | 23.7 µM | > 39.2 µM
16 | CCc1nc(-c2ccc3c(c2)CC[C@H]3NC(=O)OCC2CN(C(N)=O)C2)no1 [Compound 362, (1-carbamoylazetidin-3-yl)methyl (R)-(5-(5-ethyl-1,2,4-oxadiazol-3-yl)-2,3-dihydro-1H-inden-1-yl)carbamate] | 1.9 µM | 6.6 µM
17 | CCc1nc(-c2ccc3c(c2)CC[C@H]3NC(=O)OCC2CN(C(=O)NC)C2)no1 [Compound 363, (1-(methylcarbamoyl)azetidin-3-yl)methyl (R)-(5-(5-ethyl-1,2,4-oxadiazol-3-yl)-2,3-dihydro-1H-inden-1-yl)carbamate] | 4.7 µM | 21.1 µM

Row | SMILES | CDMF75 IC15 | IC50
18 | Cc1cc(-c2ccc3c(c2)OC[C@H]3NC(=O)c2nnn(C)n2)no1 [Compound 364, (S)-2-methyl-N-(6-(5-methylisoxazol-3-yl)-2,3-dihydrobenzofuran-3-yl)-2H-tetrazole-5-carboxamide] | 1.6 µM | 6.8 µM
19 | Cn1nccc1C(=O)N[C@@H]1CCc2cc(-c3ncccn3)ccc21 [Compound 366, (R)-1-methyl-N-(5-(pyrimidin-2-yl)-2,3-dihydro-1H-inden-1-yl)-1H-pyrazole-5-carboxamide] | 8.6 µM | > 39.2 µM
20 | Cn1nccc1C(=O)N[C@@H]1CCc2cc(-c3ccccn3)ccc21 [Compound 367, (R)-1-methyl-N-(5-(pyridin-2-yl)-2,3-dihydro-1H-inden-1-yl)-1H-pyrazole-5-carboxamide] | 13.9 µM | > 39.2 µM
21 | Cn1nccc1C(=O)N[C@@H]1CCc2cc(-c3cnccn3)ccc21 [Compound 368, (R)-1-methyl-N-(5-(pyrazin-2-yl)-2,3-dihydro-1H-inden-1-yl)-1H-pyrazole-5-carboxamide] | 17.6 µM | > 39.2 µM
22 | Cn1nccc1C(=O)N[C@@H]1CCc2cc(-c3ccnnc3)ccc21 [Compound 369, (R)-1-methyl-N-(5-(pyridazin-4-yl)-2,3-dihydro-1H-inden-1-yl)-1H-pyrazole-5-carboxamide] | 39.2 µM | > 39.2 µM
23 | Cn1nccc1C(=O)N[C@@H]1CCc2cc(-c3nccs3)ccc21 [Compound 370, (R)-1-methyl-N-(5-(thiazol-2-yl)-2,3-dihydro-1H-inden-1-yl)-1H-pyrazole-5-carboxamide] | 3.8 µM | 19.1 µM
24 | Cc1cnc(-c2ccc3c(c2)CC[C@H]3NC(=O)c2ccnn2C)s1 [Compound 371, (R)-1-methyl-N-(5-(5-methylthiazol-2-yl)-2,3-dihydro-1H-inden-1-yl)-1H-pyrazole-5-carboxamide] | 0.7 µM | 2.9 µM
25 | Cn1nccc1C(=O)N[C@@H]1CCc2cc(-c3ccccc3)ccc21 [Compound 372, (R)-1-methyl-N-(5-phenyl-2,3-dihydro-1H-inden-1-yl)-1H-pyrazole-5-carboxamide] | 3.5 µM | 15.7 µM
26 | Cc1cccc(-c2ccc3c(c2)CC[C@H]3NC(=O)c2ccnn2C)c1 [Compound 373, (R)-1-methyl-N-(5-(m-tolyl)-2,3-dihydro-1H-inden-1-yl)-1H-pyrazole-5-carboxamide] | 0.9 µM | 3.2 µM
27 | Cc1ccc(-c2ccc3c(c2)CC[C@H]3NC(=O)c2ccnn2C)cc1 [Compound 374, (R)-1-methyl-N-(5-(p-tolyl)-2,3-dihydro-1H-inden-1-yl)-1H-pyrazole-5-carboxamide] | 1.7 µM | 6.4 µM
28 | Cc1ccc(-c2ccc3c(c2)CC[C@H]3NC(=O)c2ccnn2C)cn1 [Compound 375, (R)-1-methyl-N-(5-(6-methylpyridin-3-yl)-2,3-dihydro-1H-inden-1-yl)-1H-pyrazole-5-carboxamide] | 10.6 µM | > 39.2 µM
29 | Cc1cncc(-c2ccc3c(c2)CC[C@H]3NC(=O)c2ccnn2C)c1 [Compound 376, (R)-1-methyl-N-(5-(5-methylpyridin-3-yl)-2,3-dihydro-1H-inden-1-yl)-1H-pyrazole-5-carboxamide] | 3.9 µM | 18.5 µM
30 | Cc1cccc(-c2ccc3c(c2)CC[C@H]3NC(=O)c2ccnn2C)n1 [Compound 377, (R)-1-methyl-N-(5-(6-methylpyridin-2-yl)-2,3-dihydro-1H-inden-1-yl)-1H-pyrazole-5-carboxamide] | 4.5 µM | 17.8 µM
31 | Cc1ccnc(-c2ccc3c(c2)CC[C@H]3NC(=O)c2ccnn2C)n1 [Compound 378, (R)-1-methyl-N-(5-(4-methylpyrimidin-2-yl)-2,3-dihydro-1H-inden-1-yl)-1H-pyrazole-5-carboxamide] | 2.1 µM | 12.2 µM
32 | Cc1nccc(-c2ccc3c(c2)CC[C@H]3NC(=O)c2ccnn2C)n1 [Compound 379, (R)-1-methyl-N-(5-(2-methylpyrimidin-4-yl)-2,3-dihydro-1H-inden-1-yl)-1H-pyrazole-5-carboxamide] | 39.2 µM | > 39.2 µM
33 | Cc1ccnc(-c2ccc3c(c2)CC[C@H]3NC(=O)c2ccnn2C)c1 [Compound 380, (R)-1-methyl-N-(5-(4-methylpyridin-2-yl)-2,3-dihydro-1H-inden-1-yl)-1H-pyrazole-5-carboxamide] | 2.2 µM | 10.3 µM
